Literature values in patent publication US9173850B2, “4-methylpyrazole formulations” (RAPTOR PHARMACEUTICALS INC., priority 2009, dated 2015).

System: ethanol intolerance
Conditions: doses below 10 mg/kg; subjects with reduced or absent ALDH activity who have consumed alcohol

Cc1cn[nH]c1 [Formulation 4-MP, 4-Methylpyrazole]
Effectiveness in treating ethanol intolerance or symptoms of aldehyde accumulation: effective
